Test results as given in US20110086891A1, “Solid Forms of 2-(2,4-Difluorophenyl)-6-(1-(2,6-Difluorophenyl)Ureido)Nicotinamide)” (Vertex Pharmaceuticals Incorporated, priority 2009, published 2011).
Values after ≈ are worked out from the molar mass of the structure shown. “Also recorded” adds a separate entry of the source.

How the values were obtained:
Assay type in all cases: physicochemical
[1] = Relative stability studies: slurrying 1:1 mixtures of forms in 3:1 water:ethanol at various temperatures; conditions: slurry in 3:1 water:ethanol
Protocol: 1:1 mixtures of Form C and form G of Compound I were slurried in 3:1 water:ethanol at a range of temperatures to determine the relative stability at different temperatures. 5 mg of Form C was mixed with 5 mg of Form G in a glass vial. 1.0 ml of 3:1 water:ethanol was added and the resulting slurry was stirred at 5° C. for 10 days. The resulting solid was isolated by filtration and analysed by XRPD (see FIG. 17).
(§1) The above procedure was repeated at 25, 50 and 80° C.
1:1 mixtures of Form C and Form F were slurried in 3:1 water:ethanol at a range of temperatures to determine the relative stability at different temperatures. […] Ethanol was used in addition to water in order to increase the amount of Compound I in solution and so increase the rate of conversion between forms. Ethanol was chosen as no ethanol solvate of Compound I was known. 10 mg of Form C was mixed with 10 mg of Form F in a glass vial. 2.0 ml of 3:1 water:ethanol was added and the resulting slurry was stirred at 5° C. for 24 hours. Solid was isolated by filtration and analysed by XRPD.
as §1
1:1 mixtures of Form F and Form G were slurried in 3:1 water:ethanol at a range of temperatures to determine the relative stability at different temperatures. 10 mg of Form F was mixed with 10 mg of Form G in a glass vial. 2.0 ml of 3:1 water:ethanol was added and the resulting slurry was stirred at 5° C. for 24 hours. The resulting solid was isolated by filtration and analysed by XRPD. The above procedure was repeated at 25, 50 and 70° C. 70° C. was used instead of 80° C. in an attempt to reduce degradation.

[2] = Interconversion studies (slurries in EtOAc, MeOH and water); conditions: ambient conditions
Protocol: Interconversion studies between the different forms of Compound I described herein were carried out using the general procedure outlined here:
Interconversion studies were conducted in EtOAc, MeOH and water with materials giving XRPD patterns A, P, C and F. Attempts were made to monitor the presence of the different forms of Compound I in the methanol and ethyl acetate interconversion slurries using Raman analysis and XRPD. The presence of the solvents was dominant in the Raman spectra of the slurries. […] After slurrying for 10 days, pattern A was obtained from MeOH. Pattern C was obtained from all samples slurried in EtOAc or water. […] Interconversion data can be found in Tables XVII.

[3] = Apparent (non-equilibrium) solubilities of Form C in various solvents; conditions: thermodynamic from solid
Protocol: Table XIII contains representative apparent (non-equilibrium) solubilities of Form C in various exemplary solvents.
Fifty (50.0) mg of Compound I, Form C was weighed into a small, screw-top vial. The relevant solvent was added in portions until a clear solution was obtained. In several cases, solubilization was aided by heating with a heat gun and then allowed to cool down to rt. The data provided in Table XIII are representative and some variability may occur between lots of a particular sample, e.g., about 10%.

[4] = Solubility analysis (in water); conditions: 25 °C, thermodynamic from solid
Protocol: This was measured by suspending enough Compound I in 0.25 mL of solvent (water) to give a maximum final concentration of ≧10 mg/ml of the parent free form of the compound. The suspension was equilibrated at 25° C. for 24 hrs followed by a pH check and filtration through a glass fibre C96 well plate. The filtrate was then diluted down by a factor of 101. Quantitation was by HPLC (Table XI) with reference to a standard, diluted and undiluted tests were injected. The solubility was calculated by integration of the peak area found at the same retention time as the peak maximum in the standard injection. If there is sufficient solid in the filter plate the XRPD is normally checked for phase changes, hydrate formation, amorphization, crystallization, etc.

[5] = Stability studies at 40° C./75% RH (physical and chemical stability, XRPD)
From the text: In some embodiments, less than 25% of the solid form of Compound I decomposes, in some embodiments, less than about 20%, less than about 15%, less than about 10%, less than about 5%, less than about 3%, less than about 1%, less than about 0.5% of the form of Compound I decomposes under the conditions specified. In some embodiments, no detectable amount of the solid form of Compound I decomposes. […] In some embodiments, less than 25% of the solid form of Compound I changes into one or more different physical forms when subjected to specified conditions. In some embodiments, less than about 20%, less than about 15%, less than about 10%, less than about 5%, less than about 3%, less than about 1%, less than about 0.5% of the solid form of Compound I changes into one or more different physical forms of Compound I when subjected to specified conditions. In some embodiments, no detectable amount of the solid form of Compound I changes into one or more physically different solid forms of Compound I.

[6] = Gravimetric vapour sorption (GVS) studies
Protocol: All samples were run on a Hiden IGASorp moisture sorption analyzer running CFRSorp software. Sample sizes were typically 10 mg. A moisture absorption-desorption isotherm was performed as outlined below in Table X (2 scans giving 1 complete cycle). All samples were loaded/unloaded at typical room humidity and temperature (40% RH, 25° C.). All samples were analysed by XRPD post GVS analysis. The standard isotherm was performed at 25° C. at 10% RH intervals over a 0-90% RH range.

Which “relative stability between forms” value [1] does the source give for `NC(=O)c1ccc(N(C(N)=O)c2c(F)cccc2F)nc1-c1ccc(F)cc1F` [Form C, 2-(2,4-difluorophenyl)-6-(1-(2,6-difluorophenyl)ureido)nicotinamide] here?
The value was “more stable than Form G at a temperature of 50 °C or above; also recorded: more stable than Form F at 50 and 80 °C”.

What about the “relative stability of unsolvated forms” value [2] of the same molecule?
Its value is “most stable unsolvated form at ambient conditions”.

And the solubility ([3]; organic solvent or mixture, apparent, 1,4-dioxane)?
The solubility was 100 mg/mL (≈ 247 mM).

What about the solubility ([3]; organic solvent or mixture, apparent, 1-Butanol) of the same molecule?
The solubility was 50 mg/mL (≈ 124 mM).

And the solubility ([3]; organic solvent or mixture, apparent, 2-Butanone)?
The solubility was 50 mg/mL (≈ 124 mM).

And the solubility ([3]; organic solvent or mixture, apparent, 2-Propanol)?
The solubility was 50 mg/mL (≈ 124 mM).

What about the solubility ([3]; organic solvent or mixture, apparent, 2-Propyl Acetate) of the same molecule?
The solubility was < 20 mg/mL.

And the solubility ([3]; organic solvent or mixture, apparent, Acetone)?
The solubility was 50 mg/mL (≈ 124 mM).

And the solubility ([3]; organic solvent or mixture, apparent, Acetonitrile)?
The solubility was 33 mg/mL (≈ 81.6 mM).

What about the solubility ([3]; organic solvent or mixture, apparent, Butyl acetate) of the same molecule?
Its solubility is 33 mg/mL (≈ 81.6 mM).

And the solubility ([3]; organic solvent or mixture, apparent, DMSO)?
Its solubility is 100 mg/mL (≈ 247 mM).

What about the solubility ([3]; organic solvent or mixture, apparent, Dimethylformamide) of the same molecule?
Its solubility is 100 mg/mL (≈ 247 mM).

And the solubility ([3]; organic solvent or mixture, apparent, Ethanol)?
The solubility was 50 mg/mL (≈ 124 mM).

And the solubility ([3]; organic solvent or mixture, apparent, Ethyl Acetate)?
Its solubility is 20 mg/mL (≈ 49.5 mM).

What about the solubility ([3]; organic solvent or mixture, apparent, Heptane) of the same molecule?
The solubility was < 20 mg/mL.

What about the solubility ([3]; organic solvent or mixture, apparent, Hexafluorophenol) of the same molecule?
Its solubility is 100 mg/mL (≈ 247 mM).

And the solubility ([3]; organic solvent or mixture, apparent, Methanol)?
The solubility was 100 mg/mL (≈ 247 mM).

And the solubility ([3]; organic solvent or mixture, apparent, Methyl isobutyl ketone)?
Its solubility is 50 mg/mL (≈ 124 mM).

What about the solubility ([3]; organic solvent or mixture, apparent, Methylene Chloride) of the same molecule?
The solubility was < 20 mg/mL.

And the solubility ([3]; organic solvent or mixture, apparent, N,N-dimethylacetamide)?
Its solubility is 100 mg/mL (≈ 247 mM).

What about the solubility ([3]; organic solvent or mixture, apparent, Tert-butyl methyl ether) of the same molecule?
Its solubility is < 20 mg/mL.

What about the solubility ([3]; organic solvent or mixture, apparent, Tetrahydrofuran) of the same molecule?
Its solubility is 20 mg/mL (≈ 49.5 mM).

What about the solubility ([3]; organic solvent or mixture, apparent, Toluene) of the same molecule?
The solubility was 20 mg/mL (≈ 49.5 mM).

And the solubility ([3]; organic solvent or mixture, apparent, cyclohexane)?
The solubility was < 20 mg/mL.

And the solubility ([3]; apparent, Water)?
Its solubility is < 20 mg/mL.

And the solubility at 24 h [4]?
The solubility at 24 h was ≥ 0.02 mg/mL.

And the “results of stability studies as seen by XRPD (before and after spectra)” value [5]?
Its value is “before and after spectra are similar”.

And the “time remaining in substantially the same physical form” value ([5]; 40° C./75% RH)?
The value was “at least two”.

And the “total weight gain from 0 to 90% RH” value ([6]; 0 to 90% RH, T=25° C.)?
Its value is 0.15%.

What about the “weight gain up to 60% RH” value ([6]; up to 60% RH, 25° C.) of the same molecule?
Its value is “negligible”.
